Data on one molecule can be found in US20120208853A1, “PEST CONTROL COMPOSITION” (priority 2009, published 2012).

One assay concerns Spodoptera litura. Briefly: Pesticidal effect on Spodoptera litura by bait crop immersion treatment. The assay is classed as in vivo. As to conditions: 48 h, fourth-instar larvae, 2 days after, 25° C. The method, then: Mortality (%)=(dead larvae number/tested larvae number)×100 Equation [1]
Test Example 3: Pesticidal Effect on Spodoptera litura by Bait Crop Immersion Treatment
To 10 mg of the compound (13) or (15) was added 0.2 ml of acetone containing 5% of Tween 20 (product name: SOLGEN (registered trademark) TW-20, manufactured by Dai-ichi Kogyo Seiyaku Co., Ltd.) to cause dissolution, and the solution was diluted with a 5,000-fold diluted solution of a spreading agent (product name: Dine (registered trademark), manufactured by Sumitomo Chemical Garden Products Inc.) to prepare a diluted liquid of the compound. A commercially available pyriproxyfen emulsifiable concentrate manufactured by Sumitomo Chemical Co., Ltd. under the product name of Lano (registered trademark) emulsifiable concentrate was diluted with a 5,000-fold diluted solution of a spreading agent (product name: Dine (registered trademark), manufactured by Sumitomo Chemical Garden Products Inc.) to prepare a diluted liquid of pyriproxyfen. These diluted liquids were mixed to prepare a test solution of prescribed concentration. […] The cup was stored in a constant temperature breeding room (25° C.), and the number of dead larvae was counted 2 days after, and the mortality was determined by the above equation [1].

In a further assay the test system is Plutella xylostella. Put plainly: Pesticidal effect on Plutella xylostella by bait crop immersion treatment. The assay is classed as in vivo. The settings on record: 48 h, 0.8 ppm alone (Comparative Example 4-2), third-instar larvae, 2 days after, 25° C. The method, then:
Test Example 1: Pesticidal Effect on Plutella xylostella by Bait Crop Immersion Treatment
To 10 mg of the compound (1) was added 0.2 ml of acetone containing 5% of Tween 20 (product name: SOLGEN (registered trademark) TW-20, manufactured by Dai-ichi Kogyo Seiyaku Co., Ltd.) to cause dissolution, and the solution was diluted with a 5,000-fold diluted solution of a spreading agent (product name: Dine (registered trademark), manufactured by Sumitomo Chemical Garden Products Inc.) to prepare a diluted liquid of the compound (1). […] The cup was stored in a constant temperature breeding room (25° C.), and the number of dead larvae was counted 2 days after, and the mortality was determined by the following equation [1]. […]
To 10 mg of the compound (13) was added 0.2 ml of acetone containing 5% of Tween 20 (product name: SOLGEN (registered trademark) TW-20, manufactured by Dai-ichi Kogyo Seiyaku Co., Ltd.) to cause dissolution, and the solution was diluted with a 5,000-fold diluted solution of a spreading agent (product name: Dine (registered trademark), manufactured by Sumitomo Chemical Garden Products Inc.) to prepare a diluted liquid of the compound (13). […] The cup was stored in a constant temperature breeding room (25° C.), and the number of dead larvae was counted 2 days after, and the mortality was determined by the above equation [1].

Turning to `CC(COc1ccc(Oc2ccccc2)cc1)Oc1ccccn1` (racemic) [pyriproxyfen, 4-phenoxyphenyl (RS)-2-(2-pyridyloxy)propyl ether], the mortality at 0.2 ppm in the assay on Spodoptera litura (0.2 ppm alone (Comparative Examples 5-2, 7-2)) worked out at 30%. The mortality at 3.13 ppm with Spodoptera litura (3.13 ppm alone (Comparative Example 6-2)) turned out to be 50%. The mortality at 0.8 ppm with Plutella xylostella is 40%.
